Experimental data published in patent US7566718B2, “Amine-linked pyridyl and phenyl substituted piperazine-piperidines with CXCR3 antagonist activity” (Schering Corporation, priority 2005, dated 2009).

Target: T1, human CXCR3 (N-delta 4) (Homo sapiens, UniProt P49682)
T1 construct: CD8 leader (N); Flag tag; expressed in transfected cells; membrane preparation
T1 sequence (P49682 5-368 limits assumed): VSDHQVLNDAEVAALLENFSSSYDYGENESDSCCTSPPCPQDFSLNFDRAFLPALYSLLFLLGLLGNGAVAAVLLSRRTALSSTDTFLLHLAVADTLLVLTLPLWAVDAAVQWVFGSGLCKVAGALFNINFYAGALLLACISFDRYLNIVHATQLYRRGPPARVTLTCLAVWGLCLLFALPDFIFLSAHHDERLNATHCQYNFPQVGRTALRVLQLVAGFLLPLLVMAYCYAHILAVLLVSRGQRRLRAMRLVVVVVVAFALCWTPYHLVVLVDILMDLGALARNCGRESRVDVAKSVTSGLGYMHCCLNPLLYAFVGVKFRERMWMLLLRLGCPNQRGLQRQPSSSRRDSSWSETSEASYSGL
Experiment: Human CXCR3 (N-delta 4) scintillation proximity assay (SPA), [125I] IP-10 binding to Ba/F3-hCXCR3 membranes
Details: IC50 rating; [125I] IP-10 displacement, human CXCR3; read-out: IC50
Procedure, shortened: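 Membranes from Ba/F3 cells expressing Flag-tagged hCXCR3 (N-delta 4), 2 μg/point, precoupled to WGA SPA beads. Binding of 25 pM [125I] IP-10 measured with titrated compounds, 3 hr at room temperature, in HEPES buffer with CaCl2, MgCl2, NaCl and 1.0% BSA; bound tracer read by scintillation counting.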

Compound	IC50 [nM]
CC[C@H]1CN(c2ncc(N(Cc3ccc(C#N)cc3)c3c(C(C)C)c(=O)c3=O)cc2Cl)CCN1C1CCN(Cc2ccc(C#N)cc2)CC1 [Compound 148]	> 100
CC[C@H]1CN(c2ncc(NC(C)=O)cc2Cl)CCN1C1CCN(Cc2ccc(Cl)cc2F)CC1 [Compound 177]	< 25
CC[C@H]1CN(c2ncc(NC(=O)C(C)C)cc2Cl)CCN1C1CCN(Cc2ccc(Cl)cc2F)CC1 [Compound 178]	< 25
CC[C@H]1CN(c2ncc(-n3cn[nH]c3=O)cc2Cl)CCN1C1CCN(Cc2ccc(Cl)cc2F)CC1 [Compound 179]	< 25
CC[C@H]1CN(c2ncc(NC(=O)C3CC3)cc2Cl)CCN1C1CCN(Cc2ccc(Cl)cc2F)CC1 [Compound 180]	< 25
CC(=O)Nc1cnc(N2CCN(C3CCN(Cc4ccc(Cl)cc4)CC3)[C@@H](C)C2)c(Cl)c1 [Compound 181]	< 25
CC[C@H]1CN(c2ncc(NC(=O)NC)cc2Cl)CCN1C1CCN(Cc2ccc(Cl)cc2F)CC1 [Compound 182]	< 25
CCNC(=O)Nc1cnc(N2CCN(C3CCN(Cc4ccc(Cl)cc4F)CC3)[C@@H](CC)C2)c(Cl)c1 [Compound 183]	< 25
C[C@H]1CN(c2ncc(NC(=O)C3CC3)cc2Cl)CCN1C1CCN(Cc2ccc(Cl)cc2)CC1 [Compound 184]	< 25
CC[C@H]1CN(c2ncc(NC(=O)NC3CC3)cc2Cl)CCN1C1CCN(Cc2ccc(Cl)cc2F)CC1 [Compound 185]	< 25
CC[C@H]1CN(c2ncc(NC(N)=O)cc2Cl)CCN1C1CCN(Cc2ccc(Cl)cc2F)CC1 [Compound 186]	25 to 100
CCC(=O)Nc1cnc(N2CCN(C3CCN(Cc4ccc(Cl)cc4)CC3)[C@@H](C)C2)c(Cl)c1 [Compound 187]	25 to 100
CC[C@H]1CN(c2ncc(NC(=O)NN)cc2Cl)CCN1C1CCN(Cc2ccc(Cl)cc2F)CC1 [Compound 188]	25 to 100
CC[C@H]1CN(c2ncc(NC(=O)Oc3ccccc3)cc2Cl)CCN1C1CCN(Cc2ccc(Cl)cc2F)CC1 [Compound 189]	25 to 100
CCNC(=O)Nc1cnc(N2CCN(C3CCN(Cc4ccc(Cl)cc4)CC3)[C@@H](C)C2)c(Cl)c1 [Compound 190]	25 to 100
CCNC(=O)Nc1cnc(N2C[C@H](C)N(C3CCN(Cc4ccc(Cl)cc4F)CC3)C[C@H]2C)c(Cl)c1 [Compound 191]	> 100
CCNC(=O)Nc1ccc(N2CCN(C3CCN(Cc4ccc(Cl)cc4)CC3)[C@@H](CC)C2)c(Cl)c1 [Compound 192]	> 100

Compound	IC50 [nM]
CCNC(=O)Nc1cc(Cl)c(N2CCN(C3CCN(Cc4ccc(Cl)cc4)CC3)[C@@H](CC)C2)c(Cl)c1 [Compound 193]	> 100
C[C@H]1CN(c2ncc(NC(=O)C3CCCCC3)cc2Cl)CCN1C1CCN(Cc2ccc(Cl)cc2)CC1 [Compound 194]	> 100
CC[C@H]1CN(c2ncc(NC(=O)C3CCCCC3)cc2Cl)CCN1C1CCN(Cc2ccc(Cl)cc2F)CC1 [Compound 195]	> 100
C[C@H]1CN(c2ncc(NC(=O)c3cccnc3)cc2Cl)CCN1C1CCN(Cc2ccc(Cl)cc2)CC1 [Compound 196]	> 100
C[C@H]1CN(c2ncc(NC(=O)NCc3ccccc3)cc2Cl)CCN1C1CCN(Cc2ccc(Cl)cc2)CC1 [Compound 198]	> 100
C[C@H]1CN(c2ncc(NC(=O)Nc3ccc(F)cc3)cc2Cl)CCN1C1CCN(Cc2ccc(Cl)cc2)CC1 [Compound 199]	> 100
C[C@H]1CN(c2ncc(NC(=O)c3ccc(Cl)cc3)cc2Cl)CCN1C1CCN(Cc2ccc(Cl)cc2)CC1 [Compound 200]	> 100
CC[C@H]1CN(c2ncc([N+](=O)[O-])cc2Cl)CCN1C1CCN([C@H](CO)c2ccc(Cl)cc2)CC1 [Compound 201]	< 25
CC[C@H]1CN(c2ncc(N)cc2Cl)CCN1C1CCN(Cc2ccc(Cl)cc2)CC1 [Compound 202]	< 25
CC[C@H]1CN(c2ncc(N)cc2Cl)CCN1C1CCN(Cc2ccc(Br)cc2F)CC1 [Compound 203]	< 25
CC[C@H]1CN(c2ncc(NCCCC(F)(F)F)cc2Cl)CCN1C1CCN(Cc2ccc(Cl)cc2)CC1 [Compound 204]	25 to 100
CC[C@H]1CN(c2ncc(N/C(=N/C#N)NC)cc2Cl)CCN1C1CCN(Cc2ccc(Cl)cc2F)CC1 [Compound 205]	25 to 100
CC[C@H]1CN(c2ncc(N)cc2Cl)CCN1C1CCN(Cc2ccc(Cl)cc2F)CC1 [Compound 206]	25 to 100
CC[C@H]1CN(c2ncc(N/C(N)=N/C#N)cc2Cl)CCN1C1CCN(Cc2ccc(Cl)cc2F)CC1 [Compound 208]	25 to 100
CC[C@H]1CN(c2ncc(N/C(=N/C#N)NC3CC3)cc2Cl)CCN1C1CCN(Cc2ccc(Cl)cc2F)CC1 [Compound 209]	25 to 100
CC[C@H]1CN(c2ncc(-n3cccn3)cc2Cl)CCN1C1CCN(Cc2ccc(OC(F)(F)F)cc2)CC1 [Compound 210]	25 to 100
CC[C@H]1CN(c2ncc(Nc3ncccn3)cc2Cl)CCN1C1CCN(Cc2ccc(Cl)cc2F)CC1 [Compound 211]	25 to 100

Second part, the compound after the results:

IC50 [nM]	Compound
> 100	CC[C@H]1CN(c2ncc(Nc3c(NC4CC4)c(=O)c3=O)cc2Cl)CCN1C1CCN([C@H](C(=O)NC)c2ccc(Cl)cc2)CC1 [Compound 149]
> 100	C[C@@H]1CN(c2ncc(Nc3c(NCC(F)(F)F)c(=O)c3=O)cc2Cl)[C@@H](C)CN1C1CCN(CCC(C)(C)C)CC1 [Compound 150]
> 100	COC1CCCC(CN2CCC(N3C[C@H](C)N(c4ncc(Nc5c(NCC(F)(F)F)c(=O)c5=O)cc4Cl)C[C@H]3C)CC2)O1 (stereo partly drawn) [Compound 151]
> 100	C[C@@H]1CN(c2ncc(Nc3c(NCC(F)(F)F)c(=O)c3=O)cc2Cl)[C@@H](C)CN1C1CCN(Cc2nccs2)CC1 [Compound 152]
> 100	C[C@@H]1CN(c2ncc(Nc3c(NCC(F)(F)F)c(=O)c3=O)cc2Cl)[C@@H](C)CN1C1CCN(Cc2ccccc2O)CC1 [Compound 153]
> 100	COc1ccccc1CN1CCC(N2C[C@H](C)N(c3ncc(Nc4c(NCC(F)(F)F)c(=O)c4=O)cc3Cl)C[C@H]2C)CC1 [Compound 154]
> 100	C[C@@H]1CN(c2ncc(Nc3c(NCC(F)(F)F)c(=O)c3=O)cc2Cl)[C@@H](C)CN1C1CCN(Cc2ccccc2Cl)CC1 [Compound 155]
> 100	C[C@@H]1CN(c2ncc(Nc3c(NCC(F)(F)F)c(=O)c3=O)cc2Cl)[C@@H](C)CN1C1CCN(Cc2csc3ccccc23)CC1 [Compound 156]
> 100	C[C@@H]1CN(c2ncc(Nc3c(NCC(F)(F)F)c(=O)c3=O)cc2Cl)[C@@H](C)CN1C1CCN(Cc2cccc(C(F)(F)F)c2)CC1 [Compound 157]
> 100	C[C@@H]1CN(c2ncc(Nc3c(NCC(F)(F)F)c(=O)c3=O)cc2Cl)[C@@H](C)CN1C1CCN(Cc2cccc(Cl)c2Cl)CC1 [Compound 158]
> 100	C[C@@H]1CN(c2ncc(Nc3c(NCC(F)(F)F)c(=O)c3=O)cc2Cl)[C@@H](C)CN1C1CCN(Cc2cc(Cl)cc(Cl)c2)CC1 [Compound 159]
> 100	C[C@@H]1CN(c2ncc(Nc3c(NCC(F)(F)F)c(=O)c3=O)cc2Cl)[C@@H](C)CN1C1CCN(CC(c2ccccc2)c2ccccc2)CC1 [Compound 160]
> 100	C[C@@H]1CN(c2ncc(Nc3c(NCC(F)(F)F)c(=O)c3=O)cc2Cl)[C@@H](C)CN1C1CCN(Cc2ccc(Oc3ccccc3)cc2)CC1 [Compound 161]
> 100	C[C@@H]1CN(c2ncc(Nc3c(NCC(F)(F)F)c(=O)c3=O)cc2Cl)[C@@H](C)CN1C1CCN(C2CCCC2)CC1 [Compound 162]
> 100	CC1CCCC(N2CCC(N3C[C@H](C)N(c4ncc(Nc5c(NCC(F)(F)F)c(=O)c5=O)cc4Cl)C[C@H]3C)CC2)C1 (stereo partly drawn) [Compound 163]
> 100	Cc1cc(Nc2c(NCC(F)(F)F)c(=O)c2=O)cnc1N1C[C@@H](C)N(C2CCN(C(=O)c3ccc(C(F)(F)F)cc3)CC2)C[C@@H]1C [Compound 164]
> 100	Cc1cc(Nc2c(NCC(F)(F)F)c(=O)c2=O)cnc1N1C[C@@H](C)N(C2CCN(C(=O)c3c(C)noc3C)CC2)C[C@@H]1C [Compound 165]
> 100	Cc1cc(Nc2c(NCC(F)(F)F)c(=O)c2=O)cnc1N1C[C@@H](C)N(C2CCN(C(=O)C3Cc4ccccc4C3)CC2)C[C@@H]1C [Compound 166]
> 100	CC[C@H]1CN(c2ncc(Nc3c(NC4CC4)c(=O)c3=O)cc2Cl)CCN1C1CCN([C@@H](C(N)=O)c2ccc(Cl)cc2)CC1 [Compound 167]
> 100	CC(C)C1CCC(N2CCC(N3C[C@H](C)N(c4ncc(Nc5c(NCC(F)(F)F)c(=O)c5=O)cc4Cl)C[C@H]3C)CC2)CC1 (stereo partly drawn) [Compound 169]
> 100	CCC(C)CN1CCC(N2C[C@H](C)N(c3ncc(Nc4c(NCC(F)(F)F)c(=O)c4=O)cc3Cl)C[C@H]2C)CC1 (stereo partly drawn) [Compound 170]
> 100	CCC(C)(C)C1CCC(N2CCC(N3C[C@H](C)N(c4ncc(Nc5c(NCC(F)(F)F)c(=O)c5=O)cc4Cl)C[C@H]3C)CC2)C1 (stereo partly drawn) [Compound 171]
> 100	C[C@@H]1CN(c2ncc(Nc3c(NCC(F)(F)F)c(=O)c3=O)cc2Cl)[C@@H](C)CN1C1CCN(C2CCCC(C(F)(F)F)C2)CC1 (stereo partly drawn) [Compound 172]
> 100	C[C@@H]1CN(c2ncc(Nc3c(NCC(F)(F)F)c(=O)c3=O)cc2Cl)[C@@H](C)CN1C1CCN(C2CCC(c3ccccc3)CC2)CC1 (stereo partly drawn) [Compound 173]
> 100	CC1CCCC(N2CCC(N3C[C@H](C)N(c4ncc(Nc5c(NCC(F)(F)F)c(=O)c5=O)cc4Cl)C[C@H]3C)CC2)C1 (stereo partly drawn) [Compound 176]
> 100	C[C@@H]1CN(C2CCN(Cc3ccc(Cl)cc3)CC2)[C@@H](C)CN1c1ncc(NC(=O)NCC(F)(F)F)cc1Cl [Compound 197]
